Read-outs that look alike come from different tables or passages of the source.
How the values were obtained:
[1] = tested on: thrombus in the carotid artery of rats; assay: Rat thrombosis model (FeCl3-induced carotid artery thrombus), combinations; format: in vivo; settings: 1 mg/kg of each active ingredient; for Reduction in thrombus weight after oral treatment: 10 rats per group; for Reduction in thrombus weight after oral treatment / Statistical significance of the reduction in thrombus weight (Student's t-test): oral; for Statistical significance of the reduction in thrombus weight (Student's t-test): p<0.05 regarded as significant; for Antithrombotic effect: single dosage or combination
Protocol: a) In vivo Investigations in a Rat Thrombosis Model The carotid artery of rats (HSD CPB:WU, Harlan Winkelmann) was exposed under anesthesia. A piece of filter paper impregnated with an aqueous 10% strength FeCl3 solution (dissolved in 1N aqueous hydrochloric acid) was cautiously pushed underneath the exposed vessel in accordance with the method described by Kurz et al. […] After 3 minutes, the piece of filter paper was removed. The carotid artery was removed after 15 minutes, and the thrombus was detached and immediately weighed. […] The animals in the control group had been treated with the corresponding solvent. The statistical significance was calculated using Student's t-test. Values with p<0.05 are regarded as a statistically significant effect (Medical Statistics, M J Campbell, […], Second Edition, John Wiley & Sons).

[2] = tested on: thrombus formation in an arteriovenous shunt; assay: Arteriovenous shunt model (rat), antithrombotic effect; format: in vivo
Protocol: b.1) Arteriovenous Shunt Model (Rat) Fasting male rats (strain: HSD CPB:WU) weighing 200-250 g were anesthetized with a Rompun/Ketavet solution (12 mg/kg/50 mg/kg). Thrombus formation was induced in an arteriovenous shunt by a method based on that described by Christopher N. Berry et al., Br. J. Pharmacol. (1994), 113, 1209-1214. For this purpose, the left jugular vein and the right carotid artery were exposed. An extracorporeal shunt was formed between the two vessels using a 10 cm-long polyethylene tube (PE 60). This polyethylene tube was secured in the middle by tying in a further 3 cm-long polyethylene tube (PE 160) which contained a roughened nylon thread forming a loop to produce a thrombogenic surface. The extracorporeal circulation was maintained for 15 minutes. The shunt was then removed and the nylon thread with the thrombus was immediately weighed. The blank weight of the nylon thread had been found before the start of the experiment. The test substances were administered either intravenously through the tail vein or orally by gavage to conscious animals before setting up the extracorporeal circulation.

human factor Xa (FXa) = human factor Xa (FXa) (Homo sapiens, UniProt P00742); assay: Measurement of factor Xa inhibition (chromogenic substrate); format: biochemical; settings: factor Xa inhibition
Protocol: a.1) Measurement of Factor Xa Inhibition
In this case, factor Xa eliminates p-nitroaniline from the chromogenic substrate.
The test substances were dissolved in various concentrations in DMSO and incubated with human FXa (0.5 nmol/l dissolved in 50 mmol/l tris buffer [C,C,C-tris(hydroxymethyl)-aminomethane], 150 mmol/l NaCl, 0.1% BSA (bovine serum albumine), pH=8,3) at 25° C. for 10 minutes. Pure DMSO serves as control.

[3] = intravenous administration, read-out: ED50 [mg/kg] i.v.
[4] = oral administration, read-out: ED50 [mg/kg] p.o.

human factor Xa (FXa), sequence (P00742 235-488 limits assumed): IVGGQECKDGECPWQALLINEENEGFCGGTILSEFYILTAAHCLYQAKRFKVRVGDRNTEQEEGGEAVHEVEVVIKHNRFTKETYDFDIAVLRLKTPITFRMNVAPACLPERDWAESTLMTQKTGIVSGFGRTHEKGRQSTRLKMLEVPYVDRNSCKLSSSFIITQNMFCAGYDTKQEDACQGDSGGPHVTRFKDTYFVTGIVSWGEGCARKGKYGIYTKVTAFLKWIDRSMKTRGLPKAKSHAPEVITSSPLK
human factor Xa (FXa), sequence (P00742 41-179 partner limits assumed): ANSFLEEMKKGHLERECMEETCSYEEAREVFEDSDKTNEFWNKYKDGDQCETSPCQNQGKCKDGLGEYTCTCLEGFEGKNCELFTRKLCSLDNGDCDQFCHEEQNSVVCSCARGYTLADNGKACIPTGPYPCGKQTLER

IC50 (human factor Xa (FXa)) | Structure (SMILES) | ED50 [2, 3] | also measured
 | COC(=O)[C@H](c1ccccc1Cl)N1CCc2sccc2C1 [Clopidogrel, clopidogrel, reference compound] |  | Reduction in thrombus weight after oral treatment [1]: 28%; Statistical significance of the reduction in thrombus weight (Student's t-test) [1]: no effect (p > 0.05); Antithrombotic effect [1]: inactive
 | O=C(NC[C@H]1CN(c2ccc(N3CCOCC3)c(F)c2)C(=O)O1)c1ccc(Cl)s1 [Example 1, 5-chloro-N-{[(5S)-3-(3-fluoro-4-morpholinophenyl)-2-oxo-1,3-oxazolidin-5-yl]methyl}-2-thiophenecarboxamide] | 10 mg/kg | 
 | O=C(NC[C@H]1CN(c2ccc(N3CCCC3=O)cc2)C(=O)O1)c1ccc(Cl)s1 [Example 17, 5-Chloro-N-({(5S)-2-oxo-3-[4-(2-oxo-1-pyrrolidinyl)phenyl]-1,3-oxazolidin-5-yl}methyl)-2-thiophenecarboxamide] | 6 mg/kg | 
 | O=C(NC[C@H]1CN(c2ccc(N3CCOCC3=O)cc2)C(=O)O1)c1ccc(Cl)s1 [Example 44, 5-Chloro-N-({(5S)-2-oxo-3-[4-(3-oxo-4-morpholinyl)phenyl]-1,3-oxazolidin-5-yl}methyl)-2-thiophenecarboxamide] |  | Reduction in thrombus weight after oral treatment [1]: 22%; Statistical significance of the reduction in thrombus weight (Student's t-test) [1]: no effect (p > 0.05); Antithrombotic effect [1]: inactive; ED50 [2, 4]: 3 mg/kg
 | O=C(NCC1CN(c2ccc(N3CCOCC3=O)c(F)c2)C(=O)O1)c1ccc(Cl)s1 (stereo not drawn) [Example 95, 5-Chloro-N-({3-[3-fluoro-4-(3-oxo-4-morpholinyl)phenyl]-2-oxo-1,3-oxazolidin-5-yl}methyl)-2-thiophenecarboxamide] | 3 mg/kg | 
 | O=C(NCC1CN(c2ccc(N3CCOCC3=O)c(C(F)(F)F)c2)C(=O)O1)c1ccc(Cl)s1 (stereo not drawn) [Example 114, 5-Chloro-N-({2-oxo-3-[4-(3-oxo-4-morpholinyl)-3-(trifluoromethyl)phenyl]-1,3-oxazolidin-5-yl}methyl)-2-thiophenecarboxamide] | 3 mg/kg | 
 | Cc1cc(N2CC(CNC(=O)c3ccc(Cl)s3)OC2=O)ccc1N1CCOCC1=O (stereo not drawn) [Example 115, 5-Chloro-N-({3-[3-methyl-4-(3-oxo-4-morpholinyl)phenyl]-2-oxo-1,3-oxazolidin-5-yl}methyl)-2-thiophenecarboxamide] | 3 mg/kg | 
 | Nc1cc(N2CC(CNC(=O)c3ccc(Cl)s3)OC2=O)ccc1N1CCOCC1=O (stereo not drawn) [Example 123, N-({3-[3-Amino-4-(3-oxo-4-morpholinyl)phenyl]-2-oxo-1,3-oxazolidin-5-yl}-methyl)-5-chloro-2-thiophenecarboxamide] |  | ED50 [2, 4]: 3 mg/kg
2.8 nM | O=C(NC[C@H]1CN(c2ccc(N3CCCCC3=O)cc2)C(=O)O1)c1ccc(Cl)s1 [Example 162, 5-Chloro-N-({(5S)-2-oxo-3-[4-(2-oxo-1-piperidinyl)phenyl]-1,3-oxazolidin-5-yl}-methyl)-2-thiophenecarboxamide] | 3 mg/kg | 
380 nM | O=C(NC[C@H]1CN(c2ccc(N3CCC3=O)cc2)C(=O)O1)c1ccc(Cl)s1 [Example 164, 5-Chloro-N-({(5S)-2-oxo-3-[4-(2-oxo-1-azetidinyl)phenyl]-1,3-oxazolidin-5-yl}-methyl)-2-thiophenecarboxamide] |  | 
2000 nM | CC(C)(C)OC(=O)N1CC(=O)N(c2ccc(N3CC(CNC(=O)c4ccc(Cl)s4)OC3=O)cc2)C(=O)C1 (stereo not drawn) [Example 165, tert-Butyl 4-{4-[5-({[(5-chloro-2-thienyl)carbonyl]amino}methyl)-2-oxo-1,3-oxazolidin-3-yl]phenyl}-3,5-dioxo-1-piperazinecarboxylate] |  | 
500 nM | O=C(NCC1CN(c2ccc(S(=O)(=O)N3CCCC3)cc2)C(=O)O1)c1ccc(Cl)s1 (stereo not drawn) [Example 167, 5-Chloro-N-({2-oxo-3-[4-(1-pyrrolidinylsulfonyl)phenyl]-1,3-oxazolidin-5-yl}-methyl)-2-thiophenecarboxamide] |  | 
